# Measurements: patent publication US20250213581A1, “COMBINATION THERAPY OF A PI3K INHIBITOR AND KRAS INHIBITOR AND METHODS OF USE THEREOF” (Totus Medicines Inc., priority 2022, published 2025)
# Tests used:
# UM-UC-3 (bladder) = assay: Cell proliferation assay (CellTiter-Glo, 3 days), single agent; format: cell-based; settings: Homo sapiens, UMUC3, 72 h, read-out: Absolute IC50 (μM)
# Experimental: (§1) Two duplicate plates were set up.
# (§2) At day 0, 10 μL culture medium to each well for T0 reading. […] Compound I was diluted and 10 μL of each 10× compound I from working solutions for a concentration ranging from 10 μM to about 0.005 μM. Cisplatin was diluted to about 3.33 mM to about 150 nM.
# (§3) IC50's were determined for each cell line.
# NCI-H358 (Lung) = assay: as above; format: cell-based; settings: 3 days treatment
# Experimental: as §1, §2, §3
# NCI-H1792 (Lung) = assay: as above; format: cell-based; settings: Homo sapiens
# Experimental: as §1, §2, §3
# NCI-H1373 (Lung) = assay: as above; format: cell-based; settings: Homo sapiens
# Experimental: as §1, §2, §3
# NCI-H23 (Lung) = assay: as above; format: cell-based; settings: Homo sapiens
# Experimental: as §1, §2, §3
# Calu-1 (Lung) = assay: as above; format: cell-based; settings: Homo sapiens, Calu-1, 72 h, read-out: Absolute IC50 (μM)
# Experimental: as §1, §2, §3
# PI3K = molecular target: T1, PI3K (Homo sapiens, UniProt P42336); assay: NanoBRET screening (binding assay) in transfected HEK293 cells; settings: overnight incubation, washout
# T1 construct: expressed in transfected cells; host or cells: HEK293 (Gibco 293-H), transient transfection with FuGENE HD
# T1 sequence (P42336 whole entry): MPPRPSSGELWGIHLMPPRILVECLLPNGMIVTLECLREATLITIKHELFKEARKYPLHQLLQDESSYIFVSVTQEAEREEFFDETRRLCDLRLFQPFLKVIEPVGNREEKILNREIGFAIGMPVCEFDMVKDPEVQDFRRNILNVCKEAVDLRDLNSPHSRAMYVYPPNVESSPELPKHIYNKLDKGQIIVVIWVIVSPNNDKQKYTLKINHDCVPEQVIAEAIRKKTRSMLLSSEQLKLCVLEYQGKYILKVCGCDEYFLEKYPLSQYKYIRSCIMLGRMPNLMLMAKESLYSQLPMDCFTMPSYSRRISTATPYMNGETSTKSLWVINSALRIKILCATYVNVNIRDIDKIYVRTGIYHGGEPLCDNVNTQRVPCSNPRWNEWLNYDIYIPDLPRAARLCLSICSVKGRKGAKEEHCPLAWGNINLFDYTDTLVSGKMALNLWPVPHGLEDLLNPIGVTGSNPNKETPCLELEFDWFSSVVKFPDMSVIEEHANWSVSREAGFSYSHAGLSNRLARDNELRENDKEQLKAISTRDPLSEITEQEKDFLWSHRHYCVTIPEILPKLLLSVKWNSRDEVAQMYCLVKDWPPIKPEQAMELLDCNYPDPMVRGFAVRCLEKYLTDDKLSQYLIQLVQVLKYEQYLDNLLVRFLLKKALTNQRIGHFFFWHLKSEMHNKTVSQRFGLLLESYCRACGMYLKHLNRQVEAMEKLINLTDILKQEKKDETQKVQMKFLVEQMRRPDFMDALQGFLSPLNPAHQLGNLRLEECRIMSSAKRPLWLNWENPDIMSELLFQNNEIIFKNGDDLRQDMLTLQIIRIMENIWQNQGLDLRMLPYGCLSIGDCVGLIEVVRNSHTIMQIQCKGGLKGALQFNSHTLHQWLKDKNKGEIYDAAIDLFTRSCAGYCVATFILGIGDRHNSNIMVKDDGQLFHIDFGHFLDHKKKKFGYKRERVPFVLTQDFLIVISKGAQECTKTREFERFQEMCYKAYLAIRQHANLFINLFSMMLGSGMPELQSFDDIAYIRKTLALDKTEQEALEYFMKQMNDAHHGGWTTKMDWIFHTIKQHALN
# T1 sequence (P27986 whole entry partner): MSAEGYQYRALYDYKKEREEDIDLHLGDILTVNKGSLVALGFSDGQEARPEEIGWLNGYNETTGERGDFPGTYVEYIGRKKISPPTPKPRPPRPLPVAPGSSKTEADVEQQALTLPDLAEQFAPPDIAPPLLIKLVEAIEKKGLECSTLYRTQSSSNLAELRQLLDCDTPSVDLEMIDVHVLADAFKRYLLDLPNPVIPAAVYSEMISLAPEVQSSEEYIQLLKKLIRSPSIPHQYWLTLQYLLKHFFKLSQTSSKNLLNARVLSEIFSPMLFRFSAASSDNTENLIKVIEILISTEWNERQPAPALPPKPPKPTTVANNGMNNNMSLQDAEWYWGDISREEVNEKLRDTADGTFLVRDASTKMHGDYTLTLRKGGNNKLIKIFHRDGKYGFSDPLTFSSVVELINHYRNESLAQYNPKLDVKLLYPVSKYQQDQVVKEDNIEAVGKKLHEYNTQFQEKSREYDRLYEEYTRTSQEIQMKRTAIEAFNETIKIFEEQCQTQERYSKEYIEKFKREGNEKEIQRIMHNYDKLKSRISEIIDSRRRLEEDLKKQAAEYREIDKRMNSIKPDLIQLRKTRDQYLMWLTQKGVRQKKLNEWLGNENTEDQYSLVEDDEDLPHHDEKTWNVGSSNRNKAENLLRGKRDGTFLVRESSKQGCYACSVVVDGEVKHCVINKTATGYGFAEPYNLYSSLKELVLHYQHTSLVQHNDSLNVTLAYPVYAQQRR
# Experimental: Human embryonic kidney 293-H (HEK 293, Gibco 293-H, #11631017) cell lines were maintained in Dulbecco's Modified Eagle Medium, high glucose, pyruvate (DMEM, Gibco, #11995065) supplemented with 10% fetal bovine serum (FBS, Gibco, #10082147) and 1× penicillin-streptomycin (100× solution, Gibco, #15140148) at 37° C. and 5% CO2 in a water-saturated incubator. […] Opti-MEM media supplemented with 10% fetal bovine serum (Opti-MEM I reduced serum media, no phenol red, Gibco, #11058021) was used for culturing cells overnight for NanoBRET readout experiments.
# HEK293 cells were cultivated appropriately prior to assay. The medium from cell flask was removed via aspiration, washed 1× with PBS followed by aspiration, trypsinized, and cells were allowed to dissociate from the flask. Trypsin was neutralized using growth medium and cells were pelleted via centrifugation at 200×g for 5 minutes. The medium was aspirated and the cells were resuspended into a single cell suspension using Opti-MEM I supplemented with 10% FBS. The cell density was adjusted to 2×10^5/mL in Opti-MEM I supplemented with 10% FBS in a sterile, conical tube. […]
# A 10 μg/mL solution of DNA was prepared in Opti-MEM without serum. […] The plate on plate reader is read every hour for the next 6 hours.
# [1] = tested on: SW837 (Rectum) cell lines; assay: Cell proliferation assay and synergy analysis, Compound I with Adagrasib; settings: Homo sapiens, SW837, 72 h, read-out: Ave of Inhibition (%)
# Excerpt: The cell lines tested included: UM-UC-3 (bladder), KYSE-410 (HN/Esophagus), SW1463 (rectum), Calu-1 (Lung), NCI-H358 (Lung), SW837 (Rectum), SW756 (Cervix), NCI-H2122 (Lung), NCI-H1373 (Lung), NCI-H1792 (Lung), NCI-H23 (Lung), MIA PaCa-2 (Pancreas), and HCC44 (Lung).
# Cells were recovered and maintained in appropriate culture media. The cells were harvested respectively during the logarithmic growth period. The cells were then resuspended and counted using a Vi cell counter (The cell viability was measured by trypan blue exclusion assay). The cells were then diluted and 80 μL of the cell suspensions were added to 96-well plates according to plate map with final cell density. Two duplicate plates were set up. One is for day 0 reading (T0) and the other was cultured in the incubator for reading at the end point. The incubated plates were incubated overnight in humidified incubator at 37° C. with 5% CO2.
# At day 0, 20 μL of culture medium was added to each well for T0 reading. 10 μL of culture medium was added to each well for day 0 (T0) reading. Then, 50 μl of CellTiter-Glo® Reagent was added to each well. The contents were then mixed for 2 minutes on an orbital shaker to facilitate cell lysis. The plates were then allowed to incubate at room temperature for 10 minutes to stabilize luminescent signal. Luminescence was then recorded using an EnVision Multi Label Reader. […] The screening plates were then placed back into the incubator for the appropriate treatment time (3 days).
# For the endpoint CTG reading, 50 μL of CellTiter-Glo® Reagent was added to each well. The contents were then mixed for 2 minutes on an orbital shaker to facilitate cell lysis. The plate was allowed to incubate at room temperature for 10 minutes to stabilize luminescent signal. Luminescence was then recorded using an EnVision Multi Label Reader. The surviving rate (%)=(LumTest article−LumMedium control)/(LumNone treated−LumMedium control)×100%.
# A score higher than 5 indicates synergy, and a score less than −5 indicates antagonism.
# [2] = NCI-H1792, read-out: Average Inhibition (%) (N = 3)
# [3] = NCI-H1373, read-out: Average Inhibition (%) (N = 3)
# [4] = NCI-H23, read-out: Average Inhibition (%) (N = 3)
smiles,measurement,setting,value
"C=CC(=O)NCC(=O)N1CCN(Cc2cc3c(N4CCOCC4)nc(-c4cnc(NC(=O)OC)cc4C(F)(F)F)nn3c2)CC1 [Compound I, methyl (5-(6-((4-(acryloylglycyl)piperazin-1-yl)methyl)-4-morpholinopyrrolo[2,1-f][1,2,4]triazin-2-yl)-4-(trifluoromethyl)pyridin-2-yl)carbamate]",IC50,UM-UC-3 (bladder),> 10 µM
same,inhibitory effect on cell proliferation (in words),NCI-H358 (Lung),substantial inhibitory effect
same,IC50,"NCI-H1792 (Lung); NCI-H1792, 72 h, read-out: Absolute IC50 (μM)",> 10 µM
same,inhibition at 0.0046 µM,NCI-H1792 (Lung); [2],-7.35%
same,inhibition at 0.0137 µM,NCI-H1792 (Lung); [2],-1.4%
same,inhibition at 0.0412 µM,NCI-H1792 (Lung); [2],2.27%
same,inhibition at 0.1235 µM,NCI-H1792 (Lung); [2],6.64%
same,inhibition at 0.3704 µM,NCI-H1792 (Lung); [2],7.05%
same,inhibition at 1.1111 µM,NCI-H1792 (Lung); [2],12.2%
same,inhibition at 3.3333 µM,NCI-H1792 (Lung); [2],22.4%
same,inhibition at 10 µM,NCI-H1792 (Lung); [2],34%
same,IC50,"NCI-H1373 (Lung); NCI-H1373, 72 h, read-out: Absolute IC50 (μM)",> 10 µM
same,inhibition at 0.0046 µM,NCI-H1373 (Lung); [3],-3.29%
same,inhibition at 0.0137 µM,NCI-H1373 (Lung); [3],-6.68%
same,inhibition at 0.0412 µM,NCI-H1373 (Lung); [3],-5.53%
same,inhibition at 0.1235 µM,NCI-H1373 (Lung); [3],-6.17%
same,inhibition at 0.3704 µM,NCI-H1373 (Lung); [3],-5.69%
same,inhibition at 1.1111 µM,NCI-H1373 (Lung); [3],-4.7%
same,inhibition at 3.3333 µM,NCI-H1373 (Lung); [3],-9.75%
same,inhibition at 10 µM,NCI-H1373 (Lung); [3],8.28%
same,IC50,"NCI-H23 (Lung); NCI-H23, 72 h, read-out: Absolute IC50 (μM)",> 10 µM
same,inhibition at 0.0046 µM,NCI-H23 (Lung); [4],6.06%
same,inhibition at 0.0137 µM,NCI-H23 (Lung); [4],7.11%
same,inhibition at 0.0412 µM,NCI-H23 (Lung); [4],12.1%
same,inhibition at 0.1235 µM,NCI-H23 (Lung); [4],15.4%
same,inhibition at 0.3704 µM,NCI-H23 (Lung); [4],14.9%
same,inhibition at 1.1111 µM,NCI-H23 (Lung); [4],23.4%
same,inhibition at 3.3333 µM,NCI-H23 (Lung); [4],28.6%
same,inhibition at 10 µM,NCI-H23 (Lung); [4],37.2%
same,IC50,Calu-1 (Lung),> 10 µM
same,inhibition of the PI3K target,PI3K,greater than 80%
same,inhibition at 0.0046 µM,[1],-3.3%
same,inhibition at 0.0137 µM,[1],-0.64%
same,inhibition at 0.0412 µM,[1],8.04%
same,inhibition at 0.1235 µM,[1],9.71%
same,inhibition at 0.3704 µM,[1],15.9%
same,inhibition at 1.1111 µM,[1],19%
same,inhibition at 3.3333 µM,[1],21.8%
same,inhibition at 10 µM,[1],27.5%
